Consider eleven molecules from ChEMBL document CHEMBL1201862, “PubChem BioAssay data set” (2004).

Structures are written as SMILES. Structures can show the parent of a compound that is named as a salt. The source made the active and inactive calls.

Assay [1] relates to Vero. Put plainly: cells. It counts as functional. Conditions: Chlorocebus sabaeus.
For assay [2], the target named is 5-hydroxytryptamine receptor 5A (Homo sapiens, UniProt P47898). Put plainly: Counterscreen for agonists of OPRM1-OPRD1 heterodimerization: luminescence-based cell-based high throughput dose response assay to identify agonists of 5-hydroxytryptamine (serotonin) 5A receptor (HTR5A). [Related pubchem assays (depositor defined):AID504326, AID504355, AID504692, AID504904, AID504905]. In kind it is functional. For orientation: Counterscreens check selectivity or assay interference.

Assay [3] deals with Mu-type opioid receptor (Homo sapiens, UniProt P35372). Description: Counterscreen for agonists of heterodimerization of the mu 1 (OPRM1) and delta 1 (OPRD1) opioid receptors: Luminescence-based cell-based high throughput dose response assay to identify agonists of OPRM1 homodimerization. It counts as functional.
The target in assay [4] is Delta-type opioid receptor (Homo sapiens, UniProt P41143). Description: Counterscreen for agonists of heterodimerization of the mu 1 (OPRM1) and delta 1 (OPRD1) opioid receptors: Luminescence-based cell-based high throughput dose response assay to identify agonists of OPRD1 homodimerization. [Related pubchem assays (depositor defined):AID504326, AID504355, AID504692, AID504904, AID504905]. It counts as functional.

Assay [5] concerns the target T1, Short transient receptor potential channel 4 (Mus musculus, UniProt Q9QUQ5).
T1 sequence (Q9QUQ5 whole entry): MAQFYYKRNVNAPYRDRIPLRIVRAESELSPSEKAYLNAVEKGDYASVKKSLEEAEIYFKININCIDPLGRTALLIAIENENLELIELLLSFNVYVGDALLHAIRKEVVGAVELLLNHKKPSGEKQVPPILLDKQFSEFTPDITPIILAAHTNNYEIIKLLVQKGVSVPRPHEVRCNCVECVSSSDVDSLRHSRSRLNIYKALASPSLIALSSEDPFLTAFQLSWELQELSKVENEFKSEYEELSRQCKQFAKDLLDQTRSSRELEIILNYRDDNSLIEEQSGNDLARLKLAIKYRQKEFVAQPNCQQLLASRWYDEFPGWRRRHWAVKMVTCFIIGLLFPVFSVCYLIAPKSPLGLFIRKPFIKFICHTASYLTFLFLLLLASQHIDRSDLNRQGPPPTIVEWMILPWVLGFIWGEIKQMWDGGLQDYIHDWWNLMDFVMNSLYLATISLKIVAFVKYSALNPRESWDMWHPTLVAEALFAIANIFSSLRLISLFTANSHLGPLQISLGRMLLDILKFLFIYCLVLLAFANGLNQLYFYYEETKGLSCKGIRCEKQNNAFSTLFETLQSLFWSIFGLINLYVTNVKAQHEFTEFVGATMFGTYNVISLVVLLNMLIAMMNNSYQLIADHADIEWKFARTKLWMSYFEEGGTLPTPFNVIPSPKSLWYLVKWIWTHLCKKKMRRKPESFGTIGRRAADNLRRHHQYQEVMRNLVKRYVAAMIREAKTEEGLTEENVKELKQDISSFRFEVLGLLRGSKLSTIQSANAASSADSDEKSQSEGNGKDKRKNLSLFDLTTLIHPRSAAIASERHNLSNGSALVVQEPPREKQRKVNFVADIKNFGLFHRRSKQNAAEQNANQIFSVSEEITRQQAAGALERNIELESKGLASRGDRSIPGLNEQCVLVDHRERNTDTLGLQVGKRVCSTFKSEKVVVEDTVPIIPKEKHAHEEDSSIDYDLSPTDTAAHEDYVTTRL
Put plainly: calcium entry via TRPC4 opening agents – cell-based, HEK293 TRPC4/mu-opioid, Fluo-4 calcium, dose response (AID 434937). In kind it is functional.

Assay [6] can be described thus: blockers of HIV-1 envelope-mediated cell-cell fusion – cherry-pick, dose response (AID 652057). It counts as functional, cell-based.
In assay [7] the target is T2, Carboxy-terminal domain RNA polymerase II polypeptide A small phosphatase 1 (Homo sapiens, UniProt Q9GZU7).
T2 sequence (Q9GZU7 whole entry): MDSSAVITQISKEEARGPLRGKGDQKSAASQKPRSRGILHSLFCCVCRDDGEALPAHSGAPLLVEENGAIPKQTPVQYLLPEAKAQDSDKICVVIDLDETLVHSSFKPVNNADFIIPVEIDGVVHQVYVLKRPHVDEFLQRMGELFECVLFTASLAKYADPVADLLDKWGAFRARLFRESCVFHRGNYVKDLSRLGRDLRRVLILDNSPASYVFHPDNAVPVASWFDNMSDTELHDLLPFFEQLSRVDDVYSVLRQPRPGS
Description: CTDSP1 inhibitors, concentration-response, biochemical, absorbance readout, ultra-high-throughput screen actives (AID 540297). It counts as functional.

Assay [8] is described as follows: HIV-1 AD8 envelope cell-cell fusion blockers – cherry-pick, dose response (AID 652062).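 Also: luciferase signal from cell-cell fusion driven by HIV-1 clade B AD8 Env; potency is for inhibitors of fusion seen as a drop in luminescence.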 In kind it is functional, cell-based.
The nature of assay [9]: off-target signal loss in HeLa-CEM21 co-culture – HeLa F-luc CTL cells, cherry-picked, counter-screen for HIV-1 Env fusion inhibitor project, dose response (AID 652040).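 Also: potency for signal decrease marking cytotoxic or nonspecific inhibition.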 In kind it is functional, cell-based.
Assay [10] addresses T3, Replicative DNA helicase DnaB (Mycobacterium tuberculosis, UniProt P9WMR3).
T3 sequence (P9WMR3 whole entry): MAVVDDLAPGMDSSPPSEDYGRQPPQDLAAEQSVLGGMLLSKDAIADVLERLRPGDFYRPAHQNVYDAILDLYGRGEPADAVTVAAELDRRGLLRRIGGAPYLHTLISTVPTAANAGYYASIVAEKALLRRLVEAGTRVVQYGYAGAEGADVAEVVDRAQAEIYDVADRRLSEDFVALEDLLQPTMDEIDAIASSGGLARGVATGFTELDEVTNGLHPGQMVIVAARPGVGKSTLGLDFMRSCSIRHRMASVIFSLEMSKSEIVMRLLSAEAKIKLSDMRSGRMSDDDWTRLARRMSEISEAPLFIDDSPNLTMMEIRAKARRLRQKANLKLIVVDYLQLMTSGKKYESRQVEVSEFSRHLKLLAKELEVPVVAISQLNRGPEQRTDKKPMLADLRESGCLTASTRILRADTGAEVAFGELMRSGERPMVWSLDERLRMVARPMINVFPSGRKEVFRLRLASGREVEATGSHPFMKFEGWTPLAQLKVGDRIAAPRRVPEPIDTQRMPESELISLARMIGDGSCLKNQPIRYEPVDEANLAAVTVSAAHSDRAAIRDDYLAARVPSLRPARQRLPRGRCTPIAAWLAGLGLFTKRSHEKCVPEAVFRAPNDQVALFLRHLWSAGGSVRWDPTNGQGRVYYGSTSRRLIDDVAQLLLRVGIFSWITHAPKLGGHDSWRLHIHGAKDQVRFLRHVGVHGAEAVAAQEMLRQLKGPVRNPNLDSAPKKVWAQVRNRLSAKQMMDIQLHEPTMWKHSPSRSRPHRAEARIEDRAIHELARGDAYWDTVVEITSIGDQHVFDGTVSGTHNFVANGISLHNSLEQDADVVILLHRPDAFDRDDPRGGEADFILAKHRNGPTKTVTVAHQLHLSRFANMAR
Put plainly: DnaB intein splicing inhibitors, dose response, biochemical, cell-free fluorescence (AID 449749). In kind it is functional.

Assay [11] concerns the target T4, Protein RecA (Mycobacterium tuberculosis, UniProt P9WHJ3).
T4 sequence (P9WHJ3 whole entry): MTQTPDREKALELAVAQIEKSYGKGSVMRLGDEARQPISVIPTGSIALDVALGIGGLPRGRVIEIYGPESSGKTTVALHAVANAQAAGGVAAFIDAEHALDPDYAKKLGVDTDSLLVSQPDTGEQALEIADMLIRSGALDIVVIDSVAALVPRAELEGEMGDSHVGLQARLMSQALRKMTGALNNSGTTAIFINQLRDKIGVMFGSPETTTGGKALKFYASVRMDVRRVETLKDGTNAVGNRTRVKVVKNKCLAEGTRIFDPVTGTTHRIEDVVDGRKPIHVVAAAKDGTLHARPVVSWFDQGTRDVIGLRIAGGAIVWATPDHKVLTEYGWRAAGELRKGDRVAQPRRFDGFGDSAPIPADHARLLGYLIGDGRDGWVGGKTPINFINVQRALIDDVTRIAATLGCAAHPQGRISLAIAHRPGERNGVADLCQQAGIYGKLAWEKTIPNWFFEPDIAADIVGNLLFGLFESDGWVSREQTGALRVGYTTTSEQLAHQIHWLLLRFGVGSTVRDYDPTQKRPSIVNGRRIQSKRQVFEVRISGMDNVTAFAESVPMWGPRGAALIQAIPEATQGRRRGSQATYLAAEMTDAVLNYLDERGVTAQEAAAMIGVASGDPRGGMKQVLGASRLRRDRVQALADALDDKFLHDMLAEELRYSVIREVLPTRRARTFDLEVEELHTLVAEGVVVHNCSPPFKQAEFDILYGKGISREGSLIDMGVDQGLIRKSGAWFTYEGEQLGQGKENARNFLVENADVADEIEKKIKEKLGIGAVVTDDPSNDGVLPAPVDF
Description: Fluorescence Cell-Free Homogeneous Dose Retest to Identify Inhibitors of RecA-Intein Splicing Activity. [Related pubchem assays (depositor defined):AID2097, AID2223, AID489010, AID492950]. In kind it is functional.

Assay [12] can be described thus: cells. It counts as functional, cell-based.
The nature of assay [13]: cells. In kind it is functional, cell-based. The source holds these as a separate data set.
A short description of assay [14]: Luminescence Cell-Based Dose Retest to Confirm Inhibitors of Cancer Stem Cells. [Related pubchem assays (depositor defined):AID2717, AID2721]. The following applies: Homo sapiens. In kind it is functional.
Assay [15] has as its target T1, Short transient receptor potential channel 4. Put plainly: block of DAMGO-driven TRPC4 calcium entry – cell-based, HEK293 TRPC4/mu-opioid, Fluo-4 calcium, dose response (AID 434942).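 Also: potency of inhibitors blocking the TRPC4 calcium response.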 It counts as functional.
Assay [16] in a line: NIH3T3 cell viability loss – ATP luminescence, mouse fibroblasts, counter-screen, dose response (AID 2010).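 Also: cells exposed to compound for about 90 hours before reading.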 It counts as functional, cell-based.
Assay [17] in a line: Trypanosoma cruzi growth suppression in host cells – NIH3T3 host cells, beta-gal luminescence, confirmation (AID 2044).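 Also: intracellular parasites grown in NIH/3T3 mouse fibroblasts as host cells; luminescent beta-galactosidase reporter signal from transgenic T. cruzi replicating inside host cells; inhibitors lower the luminescence signal.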 In kind it is functional, cell-based.
Assay [18] in a line: THP-1 cell cytotoxicity, dose response, cytotoxicity control for non-replicating M. tuberculosis project (AID 489025). In kind it is functional.
Assay [19] can be described thus: cells. It counts as functional.

Sequence of Delta-type opioid receptor (P41143 whole entry): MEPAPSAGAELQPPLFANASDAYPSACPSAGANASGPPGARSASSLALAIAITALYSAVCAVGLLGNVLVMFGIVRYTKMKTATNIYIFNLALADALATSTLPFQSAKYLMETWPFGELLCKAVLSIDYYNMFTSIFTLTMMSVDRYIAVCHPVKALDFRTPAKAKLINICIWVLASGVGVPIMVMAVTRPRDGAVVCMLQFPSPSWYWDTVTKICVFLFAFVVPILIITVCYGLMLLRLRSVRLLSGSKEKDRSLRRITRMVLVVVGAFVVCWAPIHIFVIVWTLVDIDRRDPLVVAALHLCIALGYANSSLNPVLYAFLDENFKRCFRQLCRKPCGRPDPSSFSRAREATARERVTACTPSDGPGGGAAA
Sequence of 5-hydroxytryptamine receptor 5A (P47898 whole entry): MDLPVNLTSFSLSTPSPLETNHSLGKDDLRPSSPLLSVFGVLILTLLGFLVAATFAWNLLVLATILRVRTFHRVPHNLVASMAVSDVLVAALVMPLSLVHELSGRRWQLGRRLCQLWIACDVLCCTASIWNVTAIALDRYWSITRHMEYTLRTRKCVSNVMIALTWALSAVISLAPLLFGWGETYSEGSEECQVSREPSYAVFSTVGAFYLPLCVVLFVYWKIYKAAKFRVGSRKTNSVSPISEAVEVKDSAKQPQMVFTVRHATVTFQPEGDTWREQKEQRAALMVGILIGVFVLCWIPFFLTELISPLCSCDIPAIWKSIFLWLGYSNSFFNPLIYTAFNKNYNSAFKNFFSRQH
Sequence of Mu-type opioid receptor (P35372 whole entry): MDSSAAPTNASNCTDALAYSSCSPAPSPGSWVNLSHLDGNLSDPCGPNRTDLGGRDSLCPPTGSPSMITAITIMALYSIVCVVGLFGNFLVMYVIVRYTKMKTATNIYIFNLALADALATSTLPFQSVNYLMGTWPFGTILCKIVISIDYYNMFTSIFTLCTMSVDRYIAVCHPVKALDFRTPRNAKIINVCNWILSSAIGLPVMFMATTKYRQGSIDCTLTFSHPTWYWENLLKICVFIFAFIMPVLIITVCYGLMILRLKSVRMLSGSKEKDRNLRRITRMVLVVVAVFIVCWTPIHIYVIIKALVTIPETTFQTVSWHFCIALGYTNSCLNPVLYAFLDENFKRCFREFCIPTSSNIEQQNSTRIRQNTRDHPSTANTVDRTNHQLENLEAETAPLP

As a reminder, the CC50 is the concentration giving 50% cytotoxicity. Turning to `COc1cccc(/C=C2/SC(=S)N(CCC(=O)N3CCOCC3)C2=O)c1`, the CC50 in assay [1] is 20.1 µM (active).
As usually defined, the EC50 is the concentration at which the effect is half-maximal. For the molecule `Cc1ccccc1[N+]1=C2SCCN2C(O)(c2ccccc2)C1` (stereo unspecified), the EC50 in assay [2] was > 92.5 µM (inactive); in assay [3] it was 18.7 µM (inactive); in [4] it was > 92.5 µM (inactive); in [5], 0.335 µM (active).
Take `O=c1c2ccc(Cl)cc2[nH]c(=S)n1Cc1cccnc1`: the EC50 in [2] is > 92.5 µM (inactive); in assay [3], 65.6 µM (inactive); in assay [4] it was 43.2 µM (inactive).
One may read the AC50 as the concentration at which the activity in the assay is half-maximal. The term IC50 denotes the concentration at which inhibition is half-maximal. Regarding `CSc1cccc(N2CC(C(=O)Nc3cccc(S(=O)(=O)N4CCCC4)c3)CC2=O)c1` (stereo unspecified), the AC50 in assay [6] was 17.8 µM (active); in [8], 11.7 µM (active); in assay [9], > 70 µM (inactive). For the same molecule, the IC50 in [7] is 6.81 µM (active).
Take `CC(=O)Nc1ccc(S(=O)(=O)NCCC(=O)OCC(=O)N2CCN(C(=O)c3ccco3)CC2)cc1`: the IC50 in [7] was 10.3 µM (active).
In the case of `Cc1ccc(-c2nnc(Sc3nc4ccccc4o3)c3ccccc23)cc1`, the half-maximal cytotoxic concentration (CC50) in assay [1] is > 25 µM (active). Besides, the AC50 is 2.39 µM (active) in assay [10] and 6.09 µM (active) in assay [14]. For the same molecule, the EC50 was 0.396 µM (active) in [11], > 350 µM (not active) in assay [12] and > 350 µM (not active) in assay [13].
Take `CN(C)C(CNC(=O)c1ccc(C(F)(F)F)cc1)c1ccco1` (stereo unspecified): the EC50 was 0.0533 µM (active) in assay [15]; > 92.4 µM (inactive) in assay [2]; > 92.4 µM (inactive) in assay [3]; 91 µM (inactive) in assay [4]; 0.267 µM (active) in [5].
Regarding `C/C(=N/Nc1ccnc2cc(Cl)ccc12)c1ccc(N)cc1`, the EC50 is > 60 µM (not active) in [16]; > 92.4 µM (inactive) in assay [2]; 54.7 µM (inactive) in [3]; 3.31 µM (active) in assay [17]; 29.5 µM (inactive) in assay [4]. The CC50 in assay [18] is 23.4 µM (active). Besides, the IC50 in assay [19] was 29 µM (active).
Turning to `COc1ccc(C(=O)N/N=C/c2ccc(OC(=O)c3cccc4ccccc34)c([N+](=O)[O-])c2)cc1`, the IC50 in assay [7] is 2.4 µM (active).
Consider `O=C(O)c1cc(-c2ccc(/C=C3\NC(=O)N(c4ccccc4)C3=O)o2)ccc1Cl`, for which the IC50 in [7] is 5.09 µM (active).
As for `c1ccc(C2(N3CCCCC3)CCCCC2)cc1` [PHENCYCLIDINE HYDROCHLORIDE], the results for the EC50 in [2], in assay [3] and in assay [4] were > 92.5 µM (inactive), 6.29 µM (active) and 33.6 µM (inactive), respectively.
